Measurements from US12195427B2, “MASP-2 inhibitors and methods of use” (priority 2018, dated 2025).
Where a name gives a salt, the structure may show the parent alone.

Assays:
MASP-2 (CCP1-CCP2-SP) = MASP-2 (CCP1-CCP2-SP) (Homo sapiens (Human), UniProt O00187); test: Enzymatic Assay for MASP-2 (fluorogenic substrate); format: biochemical
Lectin Pathway = Lectin Pathway Activation Assay in Human Serum (mannan-coated ELISA, C3c detection); format: biochemical; conditions: 1% human serum
Description: Microtiter ELISA plate was coated with mannan from Saccharomyces cerevisiae (Sigma-Aldrich, M7504) for overnight at 4° C. in coating buffer [15 mM Na2CO3, 35 mM NaHCO3].

MASP-2 CCP2-SP = MASP-2 CCP2-SP (Homo sapiens (Human), UniProt O00187); test: MASP-2 co-crystallization, X-ray crystallography and structure analysis (H-bonds, van der Waals contacts); set-up: van der Waals contact distance, MASP-2 HIS 483 atom CD2 / van der Waals contact distance, MASP-2 HIS 483 atom NE2 / van der Waals contact distance, SER 654 C to compound atom / van der Waals contact distance, SER 654 O to compound atom / van der Waals contact distance, TRP 655 C to compound atom / van der Waals contact distance, MASP-2 GLY 528 atom CA / van der Waals contact distance TRP 655 atom CZ3 / van der Waals contact distance TRP 655 atom N / van der Waals contact distance TRP 655 atom CE3 / van der Waals contact distance GLY 656 atom C / van der Waals contact distance GLY 656 atom CA / van der Waals contact distance GLY 656 atom O / van der Waals contact distance, MASP-2 TYR 607 atom CD1 / van der Waals contact distance, MASP-2 PRO 606 atom O / d(C3,CA1) / d(CA1,N1)2 / d(H4,O1) / d(H4,O2) / d(O1,O2) / d(CA1,O2) / d(CA6,O1) / d(CA6,O2) / d(CA1,C5) / d(O2,H3) / d(N2,C2) / d(CA5,N2) / d(N2,C4) / d(N2,C6) / d(N2,CA3) / d(N2,O3) / d(O4,H2): unit not given beside the values
Procedure, shortened: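 Human MASP-2 CCP2-SP, untagged or 6His-tagged, was expressed in E. coli and crystallized. Crystals were soaked with inhibitor in crystallization solution, flash-cooled in liquid nitrogen, and diffracted with synchrotron X-rays (wavelength 1.0). Structures were solved by molecular replacement from 1Q3X and partially refined.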

Sequence of MASP-2 (CCP1-CCP2-SP) (O00187 445-686): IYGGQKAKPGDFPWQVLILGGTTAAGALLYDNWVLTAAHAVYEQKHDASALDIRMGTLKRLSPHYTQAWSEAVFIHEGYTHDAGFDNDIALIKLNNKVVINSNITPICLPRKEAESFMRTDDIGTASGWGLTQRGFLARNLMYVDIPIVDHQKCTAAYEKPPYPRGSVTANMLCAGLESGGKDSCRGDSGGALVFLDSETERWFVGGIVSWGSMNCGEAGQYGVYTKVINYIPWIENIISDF
Sequence of MASP-2 CCP2-SP (O00187 445-686): as above
Sequence of MASP-2 CCP2-SP (O00187 364-432 partner): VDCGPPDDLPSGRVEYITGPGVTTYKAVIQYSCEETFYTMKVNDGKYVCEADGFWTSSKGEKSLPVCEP

## Cc1nc(N)ccc1CNC(=O)[C@H](C)NC(=O)[C@H]1C[C@@H](c2cccc(CN)c2)CN1 [compound 1291, (2R,4S)—N—((S)-1-(((6-Amino-2-methylpyridin-3-yl)methyl)amino)-1-oxopropan-2-yl)-4-(3-(aminomethyl)phenyl)pyrrolidine-2-carboxamide]
MASP-2 (CCP1-CCP2-SP)
  Ki: 500 to 2500 nM

## N=C(N)c1ccc2[nH]c(Cc3ccccn3)nc2c1 [compound 2002, 2-(Pyridin-2-ylmethyl)-1H-benzo[d]imidazole-5-carboximidamide Dihydrochloride]
MASP-2 (CCP1-CCP2-SP); +Zn
  MASP-2 versus thrombin selectivity: ++ (+Zn) (5.0 to 25-fold)

## C[C@H](NC(=O)[C@H]1C[C@H](Cc2ccc(-c3ccccc3)cc2)CN1)C(=O)NCc1cnc2[nH]cc(Cl)c2c1 [compound 1356, (2R,4S)-4-([1,1′-Biphenyl]-4-ylmethyl)-N—((S)-1-(((3-chloro-1H-pyrrolo[2,3-b]pyridin-5-yl)methyl)amino)-1-oxopropan-2-yl)pyrrolidine-2-carboxamide]
Lectin Pathway
  IC50: 50 to 500 nM

## C[C@H](NC(=O)[C@H](N)CCc1ccccc1)C(=O)NCc1ccc(N)nc1 [compound 1007]
MASP-2 (CCP1-CCP2-SP)
  Ki: < 500 nM
MASP-2 CCP2-SP; Table A1 (H-Bonds), ASP 627 OD2
  H-bond distance to MASP-2 ASP 627 atom OD2: 3.27
MASP-2 CCP2-SP; Table A1 (H-Bonds), SER 628 O
  H-bond distance to MASP-2 SER 628 atom O: 2.59
MASP-2 CCP2-SP; Table A1 (H-Bonds), SER 654 O
  H-bond distance to MASP-2 SER 654 atom O: 2.94
MASP-2 CCP2-SP; Table A1 (H-Bonds), SER 657 O
  H-bond distance to MASP-2 SER 657 atom O: 2.88
MASP-2 CCP2-SP; Table A2-1
  van der Waals contact distance, MASP-2 HIS 483 atom CD2: 3.38
MASP-2 CCP2-SP; Table A2-3
  van der Waals contact distance, MASP-2 PHE 529 atom CD1: 3.83
  van der Waals contact distance, MASP-2 PHE 529 atom CZ: 3.82
MASP-2 CCP2-SP; Table A2-4
  van der Waals contact distance, MASP-2 TYR 607 atom CD1: 3.84
MASP-2 CCP2-SP; Table A2-9, ARG 630, AA atoms CG, CZ
  van der Waals contact distance, MASP-2 amino acid atom to compound atom: 3.61
MASP-2 CCP2-SP; Table A2-12
  van der Waals contact distance, TRP 655 CA to compound atom: 3.31
MASP-2 CCP2-SP; Table A2-13, MASP-2 GLY 656 C
  van der Waals contact distance GLY 656 atom C: 3.74
MASP-2 CCP2-SP; Table A2-13, MASP-2 TRP 655 CE3, compound atom in line below
  van der Waals contact distance TRP 655 atom CE3: 3.69
MASP-2 CCP2-SP; Table A2-13, MASP-2 TRP 655 CZ3
  van der Waals contact distance TRP 655 atom CZ3: 3.78
MASP-2 CCP2-SP; Table A2-14, MASP-2 GLY 656 N
  van der Waals contact distance GLY 656 atom N: 3.71
MASP-2 CCP2-SP; Table A2-14, MASP-2 GLY 656 O
  van der Waals contact distance GLY 656 atom O: 3.85
MASP-2 CCP2-SP; Table A2-14, MASP-2 SER 657 C, columns c12-c13 (inferred)
  van der Waals contact distance SER 657 atom C: 3.87

## C[C@H](NC(=O)[C@H](N)CCc1ccccc1)C(=O)NCc1cc(Cl)ccc1-n1cnnn1 [compound 1325, (R)-2-amino-N—((S)-1-((5-chloro-2-(1H-tetrazol-1-yl)benzyl)amino)-1-oxopropan-2-yl)-4-phenylbutanamide]
MASP-2 (CCP1-CCP2-SP)
  Ki: 500 to 2500 nM
